Measured values taken from US11834453B2, “Substituted pyrimido[5,4-d]pyrimidines as HER2 inhibitors” (Array BioPharma Inc., priority 2020, dated 2023).

Key:
[1] = molecular target: ErbB2 insYVMA (HER2-YVMA, SEQ ID NO: 2) (Homo sapiens, UniProt P04626, INS775YVMA/P1170A); experiment: biochemical; settings: ErbB2 insYVMA enzyme assay; read-out: Assay 1 IC50
[2] = molecular target: ErbB2 WT (Homo sapiens (Human), UniProt P04626); experiment: ErbB enzyme assay (CisBio HTRF KinEASE-TK), Assay 2; type: biochemical
Sequence of ErbB2 WT (P04626 23-1255): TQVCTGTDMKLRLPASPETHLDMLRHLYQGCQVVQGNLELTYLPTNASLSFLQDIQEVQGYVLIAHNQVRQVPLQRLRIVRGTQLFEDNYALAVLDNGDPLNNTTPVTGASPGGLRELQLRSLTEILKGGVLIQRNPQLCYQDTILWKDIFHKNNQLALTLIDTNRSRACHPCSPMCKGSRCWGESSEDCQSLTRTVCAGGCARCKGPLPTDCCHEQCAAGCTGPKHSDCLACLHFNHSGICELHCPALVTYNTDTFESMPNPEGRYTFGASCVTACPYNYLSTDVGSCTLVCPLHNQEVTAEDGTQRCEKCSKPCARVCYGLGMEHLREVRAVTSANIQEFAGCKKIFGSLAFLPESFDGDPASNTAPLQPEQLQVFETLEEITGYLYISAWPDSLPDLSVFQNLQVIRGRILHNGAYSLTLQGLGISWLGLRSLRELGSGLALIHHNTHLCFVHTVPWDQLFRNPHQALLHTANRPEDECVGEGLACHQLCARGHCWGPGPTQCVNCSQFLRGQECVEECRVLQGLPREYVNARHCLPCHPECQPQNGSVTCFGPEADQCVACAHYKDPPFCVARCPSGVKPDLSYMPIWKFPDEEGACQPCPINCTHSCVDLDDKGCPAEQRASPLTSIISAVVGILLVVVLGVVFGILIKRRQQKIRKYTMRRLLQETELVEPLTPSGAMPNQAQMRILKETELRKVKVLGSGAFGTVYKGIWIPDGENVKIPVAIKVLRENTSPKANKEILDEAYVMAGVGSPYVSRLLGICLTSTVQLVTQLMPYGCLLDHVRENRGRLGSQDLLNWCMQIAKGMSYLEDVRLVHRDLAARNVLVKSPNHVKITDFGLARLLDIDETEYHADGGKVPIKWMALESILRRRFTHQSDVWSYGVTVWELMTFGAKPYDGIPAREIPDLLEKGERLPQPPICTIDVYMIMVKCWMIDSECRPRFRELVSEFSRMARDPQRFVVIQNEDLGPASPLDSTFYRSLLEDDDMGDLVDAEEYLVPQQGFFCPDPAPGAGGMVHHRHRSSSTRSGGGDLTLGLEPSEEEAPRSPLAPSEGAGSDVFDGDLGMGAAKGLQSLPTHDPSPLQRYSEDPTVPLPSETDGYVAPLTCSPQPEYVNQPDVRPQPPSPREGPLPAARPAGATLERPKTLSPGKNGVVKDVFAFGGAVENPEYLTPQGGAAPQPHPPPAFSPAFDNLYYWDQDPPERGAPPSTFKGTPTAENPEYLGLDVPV
Method in brief: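 ErbB2 phosphorylates 250 nM biotin-TK substrate at 1 mM ATP in 25 mM HEPES pH 7.4, 10 mM MgCl2, 0.01% Triton X-100 and 2% DMSO, for 30 min at 22 °C. Product is detected by HTRF with Sa-XL665 and TK-Ab-Cryptate. Percent of control is set by DMSO-only wells and pre-quenched wells.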

[3] = molecular target: EGFR (Homo sapiens (Human), UniProt P00533); experiment: ErbB enzyme assay (CisBio HTRF KinEASE-TK), Assay 3; type: biochemical
Method in brief: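 Kinase incubated 30 min at 22 °C with 250 nM biotinylated TK substrate, 1 mM ATP and serially diluted compound in 25 mM HEPES pH 7.4, 10 mM MgCl2, 0.01% Triton X-100, 2% DMSO. Phosphorylation read by HTRF (Sa-XL665/TK-Ab-Cryptate); IC50 from 4-parameter fit of percent of control.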

[4] = molecular target: ErbB2 with Exon 20 YVMA insertion (HER2-YVMA) (Homo sapiens (Human), UniProt P04626, INS775YVMA); experiment: Cellular phosphorylation assay, constitutive ErbB2 phosphorylation (Y1196) in engineered NIH 3T3 cells, Assay 4; type: cell-based
Sequence of ErbB2 with Exon 20 YVMA insertion (HER2-YVMA) (P04626 other isoform, or with tags, fused parts or gaps ins YVMA behind 775): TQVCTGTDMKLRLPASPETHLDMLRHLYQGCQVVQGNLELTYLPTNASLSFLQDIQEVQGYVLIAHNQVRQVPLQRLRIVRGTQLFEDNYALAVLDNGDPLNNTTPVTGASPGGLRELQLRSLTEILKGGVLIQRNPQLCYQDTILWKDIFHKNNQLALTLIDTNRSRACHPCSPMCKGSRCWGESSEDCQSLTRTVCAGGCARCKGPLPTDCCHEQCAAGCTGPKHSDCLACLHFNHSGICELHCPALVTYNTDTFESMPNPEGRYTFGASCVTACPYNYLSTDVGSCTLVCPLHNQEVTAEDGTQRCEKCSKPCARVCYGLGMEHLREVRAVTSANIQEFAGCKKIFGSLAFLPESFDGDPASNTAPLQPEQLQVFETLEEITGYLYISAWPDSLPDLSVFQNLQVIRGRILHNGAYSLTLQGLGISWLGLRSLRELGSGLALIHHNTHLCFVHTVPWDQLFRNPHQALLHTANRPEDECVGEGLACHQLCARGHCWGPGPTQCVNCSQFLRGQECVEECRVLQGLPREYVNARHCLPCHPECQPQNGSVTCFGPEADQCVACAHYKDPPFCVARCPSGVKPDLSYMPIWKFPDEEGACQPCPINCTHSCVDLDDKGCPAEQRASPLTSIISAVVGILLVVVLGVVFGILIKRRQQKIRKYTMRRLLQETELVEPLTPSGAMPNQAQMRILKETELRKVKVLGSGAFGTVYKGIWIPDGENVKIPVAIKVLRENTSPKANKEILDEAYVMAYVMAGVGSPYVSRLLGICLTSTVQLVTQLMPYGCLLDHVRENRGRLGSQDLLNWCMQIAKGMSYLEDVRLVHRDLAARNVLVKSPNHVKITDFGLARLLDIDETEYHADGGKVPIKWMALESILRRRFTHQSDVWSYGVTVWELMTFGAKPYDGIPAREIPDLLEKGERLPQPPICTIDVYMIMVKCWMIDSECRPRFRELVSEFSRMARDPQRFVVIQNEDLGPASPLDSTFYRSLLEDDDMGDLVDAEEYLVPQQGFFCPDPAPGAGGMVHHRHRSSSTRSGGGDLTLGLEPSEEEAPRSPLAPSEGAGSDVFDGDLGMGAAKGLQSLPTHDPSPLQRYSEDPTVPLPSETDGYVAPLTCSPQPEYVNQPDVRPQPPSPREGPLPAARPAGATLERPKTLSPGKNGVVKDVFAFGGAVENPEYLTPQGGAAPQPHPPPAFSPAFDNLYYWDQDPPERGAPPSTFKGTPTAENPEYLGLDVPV
Method in brief: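 Engineered NIH 3T3 cells expressing HER2-YVMA treated with compounds 1 h at 37 °C, then formaldehyde-fixed and methanol-permeabilized. pErbB2 Y1196 detected by in-cell infrared immunofluorescence, normalized to GAPDH. IC50 from the normalized curves.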

[5] = molecular target: EGFR wild type (EGFR WT) (Homo sapiens (Human), UniProt P00533); experiment: Cellular phosphorylation assay, EGF-stimulated EGFR phosphorylation in engineered NIH 3T3 cells, Phospho-EGFR DuoSet IC ELISA, Assay 5; type: cell-based
Method in brief: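 NIH 3T3 cells expressing EGFR WT (20,000/well, attached overnight) were exposed to serially diluted compound for 1 h at 37 °C, then stimulated with 100 ng/ml rEGF for 10 min. Phospho-EGFR in lysates measured by sandwich ELISA optical density; IC50 from curves.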

[6] = molecular target: MDR1 (P-gp) (Homo sapiens (Human), UniProt P08183); experiment: MDR1 transfected MDCKII canine Mdr1 knockout permeability/efflux, Assay 7; settings: dog, MDCK-MDR1
Sequence of MDR1 (P-gp) (P08183 whole entry): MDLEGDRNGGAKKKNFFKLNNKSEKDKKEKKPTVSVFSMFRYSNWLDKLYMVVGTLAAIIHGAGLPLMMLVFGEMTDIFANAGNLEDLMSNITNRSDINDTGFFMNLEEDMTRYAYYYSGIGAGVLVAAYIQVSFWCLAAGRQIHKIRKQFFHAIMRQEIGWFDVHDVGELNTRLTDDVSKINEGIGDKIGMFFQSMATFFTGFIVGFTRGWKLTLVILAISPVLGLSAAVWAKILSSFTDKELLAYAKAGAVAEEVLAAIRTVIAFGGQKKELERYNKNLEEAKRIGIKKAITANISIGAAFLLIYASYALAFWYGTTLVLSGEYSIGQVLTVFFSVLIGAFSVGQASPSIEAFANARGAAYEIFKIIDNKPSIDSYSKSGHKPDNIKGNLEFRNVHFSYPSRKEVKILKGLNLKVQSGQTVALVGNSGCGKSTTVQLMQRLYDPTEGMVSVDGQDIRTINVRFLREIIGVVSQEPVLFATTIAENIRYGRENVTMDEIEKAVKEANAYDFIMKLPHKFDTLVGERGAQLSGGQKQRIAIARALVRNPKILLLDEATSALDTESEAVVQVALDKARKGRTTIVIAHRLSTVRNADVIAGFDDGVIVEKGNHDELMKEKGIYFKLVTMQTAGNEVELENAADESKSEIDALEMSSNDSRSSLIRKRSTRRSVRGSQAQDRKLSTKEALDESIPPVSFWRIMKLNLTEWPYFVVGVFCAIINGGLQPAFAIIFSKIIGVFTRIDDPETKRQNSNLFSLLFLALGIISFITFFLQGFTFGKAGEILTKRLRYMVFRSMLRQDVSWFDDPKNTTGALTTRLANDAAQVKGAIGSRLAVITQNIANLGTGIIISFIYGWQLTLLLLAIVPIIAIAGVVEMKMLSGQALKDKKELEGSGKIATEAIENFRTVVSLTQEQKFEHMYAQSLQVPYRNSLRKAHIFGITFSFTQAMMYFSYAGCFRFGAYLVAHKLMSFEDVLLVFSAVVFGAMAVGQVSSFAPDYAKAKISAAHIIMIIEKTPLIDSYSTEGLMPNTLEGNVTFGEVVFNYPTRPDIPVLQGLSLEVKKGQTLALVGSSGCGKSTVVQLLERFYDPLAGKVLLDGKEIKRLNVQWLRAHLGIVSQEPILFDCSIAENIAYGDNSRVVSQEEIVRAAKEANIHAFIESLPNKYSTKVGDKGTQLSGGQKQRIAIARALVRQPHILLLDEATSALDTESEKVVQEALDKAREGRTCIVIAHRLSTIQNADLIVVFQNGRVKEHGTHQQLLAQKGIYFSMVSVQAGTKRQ
Method: Both MDR1 transfected LLC-PK1 (Assay 6) and MDR1 transfected MDCKII canine Mdr1 knockout cells (Assay 7) were cultured and plated according to manufacturer's recommendations with the exception that the passage media for the MDR1 transfected LLC-PK1 cell line contained only 2% fetal bovine serum so as to extend passage time out to seven days.
Both positive and negative controls were used to assess functionality of P-gp or BCRP efflux in the assays. Stock solutions for assay controls and the test article were prepared in DMSO for final test concentration of 1 μM. Final organic concentration in the assay was 1%. All dosing solutions contained 10 μM lucifer yellow to monitor MDCKII cell monolayer integrity.
For the apical to basolateral determination (A to B), 75 μL of the test article in transport buffer were added to the apical side of the individual transwells and 250 μL of basolateral media, without compound or lucifer yellow, were added to each well. For the basolateral to apical determination (B to A), 250 μL of test article in transport buffer were added to each well and 75 μL transport buffer, without compound or lucifer yellow, were added to each transwell. All tests were performed in triplicate, and each compound was tested for both apical to basolateral and basolateral to apical transport. The plates were incubated for 2 hours on a Lab-Line Instruments Titer Orbital Shaker (VWR, West Chester, PA) at 50 rpm and 37° C. with 5% CO2. All culture plates were removed from the incubator, 50 μL of media were removed from the apical and basolateral portion of each well, and added to 150 μL of 1 μM labetalol in 2:1 acetonitrile (ACN): H2O, v/v.
The plates were read using a Molecular Devices (Sunnyvale, CA) Gemini Fluorometer to evaluate the lucifer yellow concentrations at excitation/emission wavelengths of 425/535 nm. These values were accepted when found to be below 2% for apical to basolateral and 5% basolateral to apical flux across the MDR1-transfected LLC-PK1 or BCRP-transfected MDCKII cell monolayers. The plates were sealed, and the contents of each well analyzed by LC MS/MS. The compound concentrations were determined from the ratio of the peak areas of the compound to the internal standard (labetalol) in comparison to the dosing solution.
A MDS Sciex API 4000 (Applied Biosystems, Foster City, CA) mass spectrometer was used for detection of the analytes in the ion spray positive mode. Analyte responses were measured by multiple reaction monitoring (“MRM”) of transitions unique to each compound (the protonated precursor ion and selected product ions for each test article and m/z 329 to m/z 162 for labetalol, the internal standard.
The total run time, including re-equilibration, for a single injection was 1.2 minutes. […] The total run time, including re-equilibration, for a single injection was 0.61 minutes.
An efflux ratio is calculated from the mean apical to basolateral (A-B) Papp data and basolateral to apical (B-A) Papp data: Efflux ratio=Papp(B−A)/Papp(A−B)

[7] = molecular target: BCRP (Homo sapiens (Human), UniProt Q9UNQ0); experiment: BCRP transfected MDCKII canine Mdr1 knockout permeability/efflux, Assay 9; settings: dog
[8] = Assay 9 Pe Ratio, efflux ratio Papp(B-A)/Papp(A-B), BCRP transfected MDCKII canine Mdr1 knockout

Sequence of ErbB2 insYVMA (HER2-YVMA, SEQ ID NO: 2) (P04626 with tags, fused parts or gaps INS775YVMA/P1170A limits assumed): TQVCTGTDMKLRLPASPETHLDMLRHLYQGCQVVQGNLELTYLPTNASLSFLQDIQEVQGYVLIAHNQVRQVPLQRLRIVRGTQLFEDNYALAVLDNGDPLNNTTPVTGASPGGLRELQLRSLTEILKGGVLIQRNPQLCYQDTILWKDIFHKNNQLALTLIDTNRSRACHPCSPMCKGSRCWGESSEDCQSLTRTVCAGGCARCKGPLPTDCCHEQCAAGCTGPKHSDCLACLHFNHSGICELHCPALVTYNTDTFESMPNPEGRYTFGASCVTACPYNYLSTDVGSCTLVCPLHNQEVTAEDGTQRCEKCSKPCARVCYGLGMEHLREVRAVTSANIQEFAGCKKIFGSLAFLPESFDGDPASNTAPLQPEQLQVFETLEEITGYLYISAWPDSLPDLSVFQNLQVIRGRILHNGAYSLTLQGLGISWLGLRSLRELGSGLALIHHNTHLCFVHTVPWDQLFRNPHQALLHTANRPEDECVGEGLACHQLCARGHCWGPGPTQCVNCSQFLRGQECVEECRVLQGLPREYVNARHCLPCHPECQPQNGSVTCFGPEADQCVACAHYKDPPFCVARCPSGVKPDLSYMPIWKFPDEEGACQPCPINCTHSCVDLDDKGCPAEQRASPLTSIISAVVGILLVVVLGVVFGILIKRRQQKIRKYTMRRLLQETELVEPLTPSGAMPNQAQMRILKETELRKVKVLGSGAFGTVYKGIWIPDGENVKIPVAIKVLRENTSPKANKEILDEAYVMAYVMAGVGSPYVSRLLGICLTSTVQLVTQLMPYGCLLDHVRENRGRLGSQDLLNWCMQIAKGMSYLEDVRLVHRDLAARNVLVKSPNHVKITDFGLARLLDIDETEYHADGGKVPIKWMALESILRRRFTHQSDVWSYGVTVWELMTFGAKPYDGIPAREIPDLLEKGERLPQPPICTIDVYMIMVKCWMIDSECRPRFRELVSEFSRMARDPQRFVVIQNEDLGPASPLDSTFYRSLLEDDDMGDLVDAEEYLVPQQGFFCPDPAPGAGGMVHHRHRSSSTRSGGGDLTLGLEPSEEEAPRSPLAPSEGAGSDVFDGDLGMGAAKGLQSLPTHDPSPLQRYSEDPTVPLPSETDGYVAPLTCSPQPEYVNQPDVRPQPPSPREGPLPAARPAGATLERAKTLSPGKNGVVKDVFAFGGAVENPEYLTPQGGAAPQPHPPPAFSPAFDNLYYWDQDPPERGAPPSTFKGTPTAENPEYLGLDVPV

| Structure (SMILES) | IC50 [1] [nM] | IC50 [2] [nM] | IC50 [3] [nM] | IC50 [4] [nM] | IC50 [5] [nM] | efflux ratio at 2 h, 1 μM [6] | efflux ratio at 2 h, 1 μM [7, 8] | efflux ratio at 2 h, 1 μM [7] |
| --- | --- | --- | --- | --- | --- | --- | --- | --- |
| CO[C@H]1CN(c2ncc3ncnc(Nc4ccc(Oc5ccc6c(c5)ncn6C)c(C)c4)c3n2)C[C@H]1O [Example 197, (3R,4S)-4-methoxy-1-(8-((3-methyl-4-((1-methyl-1H-benzo[d]imidazol-5-yl)oxy)phenyl)amino)pyrimido[5,4-d]pyrimidin-2-yl)pyrrolidin-3-ol] | 14.1 | 21 | 8640 | 44.9 | ≥ 5000 | 1.8 | 35.7 |  |
| Cc1cc(Nc2ncnc3cnc(N4C[C@H](O)C(F)(F)C4)nc23)c(F)cc1Oc1ccc2c(c1)ncn2C [Example 202, (S)-4,4-difluoro-1-(8-((2-fluoro-5-methyl-4-((1-methyl-1H-benzo[d]imidazol-5-yl)oxy)phenyl)amino)pyrimido[5,4-d]pyrimidin-2-yl)pyrrolidin-3-ol] | 25.7 | 31.1 | ≥ 10000 | 49.2 | ≥ 5000 | 1.2 | 6.4 |  |
| Cc1cc(Nc2ncnc3cnc(N4CC5(C4)CC(O)(C(F)F)C5)nc23)ccc1Oc1ccc2c(c1)ncn2C [Example 210, 6-(difluoromethyl)-2-(8-((3-methyl-4-((1-methyl-1H-benzo[d]imidazol-5-yl)oxy)phenyl)amino)pyrimido[5,4-d]pyrimidin-2-yl)-2-azaspiro[3.3]heptan-6-ol] | 40.5 | 30.2 | ≥ 10000 | 27 | ≥ 5000 | 1.7 |  | 36.8 |
| Cc1cc(Nc2ncnc3cnc(N4C[C@@H](O)C5(CC5)C4)nc23)ccc1Oc1ccc2c(c1)ncn2C [Example 211, (S)-5-(8-((3-methyl-4-((1-methyl-1H-benzo[d]imidazol-5-yl)oxy)phenyl)amino)pyrimido[5,4-d]pyrimidin-2-yl)-5-azaspiro[2.4]heptan-7-ol] | 10.9 | 31 | 3140 | 14.8 | ≥ 5000 | 3.3 |  | 25.2 |
| Cc1cc(Nc2ncnc3cnc(N4C[C@H](O)C5(CC5)C4)nc23)ccc1Oc1ccc2c(c1)ncn2C [Example 212, (R)-5-(8-((3-methyl-4-((1-methyl-1H-benzo[d]imidazol-5-yl)oxy)phenyl)amino)pyrimido[5,4-d]pyrimidin-2-yl)-5-azaspiro[2.4]heptan-7-ol] | 12.8 | 22.9 | 2410 | 10.3 | ≥ 5000 | 2.8 |  | 31.4 |
| Cc1cc(Nc2ncnc3cnc(N4CC[C@@](C)(O)C4)nc23)c(F)cc1Oc1ccc2c(c1)ncn2C [Example 214, (R)-1-(8-((2-fluoro-5-methyl-4-((1-methyl-1H-benzo[d]imidazol-5-yl)oxy)phenyl)amino)pyrimido[5,4-d]pyrimidin-2-yl)-3-methylpyrrolidin-3-ol] | 15.4 | 46.6 | ≥ 10000 | 28.1 | ≥ 5000 | 1.5 | 8.8 |  |
| Cc1cc(Nc2ncnc3cnc(N4CCC[C@@](C)(O)C4)nc23)c(F)cc1Oc1ccc2c(c1)ncn2C [Example 218, (R)-1-(8-((2-fluoro-5-methyl-4-((1-methyl-1H-benzo[d]imidazol-5-yl)oxy)phenyl)amino)pyrimido[5,4-d]pyrimidin-2-yl)-3-methylpiperidin-3-ol] | 41.6 | 40.3 | ≥ 10000 | 43.8 | ≥ 5000 | 1.5 | 2.4 |  |
| Cc1cc(Nc2ncnc3cnc(N4CCO[C@H](C)C4)nc23)ccc1Oc1ccc2c(c1)ncn2C [Example 265] | 46.5 | 45.6 | 5350 | 16.8 | ≥ 5000 | 1.1 | 1.8 |  |
